These results are taken from patent US20240239818A1, “COMPOUNDS AND COMPOSITIONS COMPRISING FLUOROPHORES FOR USE IN VISUALIZATION AND PURIFICATION OR MANIPULATION” (priority 2022, published 2024).

For data set [1], the target named is T1, msGFP-HaloTag® fusion localized to the mitochondrial outer membrane (Rhodococcus rhodochrous, UniProt P0A3G2, A155T/A167V/A172T/A224E/C128F/C176G/D78G/E160K/E257K/H272N/K175M/K195N/L47V/L88M/N227D/S58T/T264A/Y273L/Y87F).
T1 construct: expressed in transfected cells; host or cells: HEK293T, calcium phosphate transfection
As to the kind of experiment: HEK293T labeling and fluorescence microscopy. As to conditions: live HEK293T cells, nanomolar concentration (100 nM, 1 h). Type of data set: cell-based. From the text:
Plasmid construction. HaloTag®, amplified from the pHTC HaloTag® CMV-neo Vector (Promega; G7711) and monomeric-superfolder green fluorescent protein (msGFP; lab stock), was fused to the mitochondrial targeting signal from OMP25,^28 interspacing flexible GS(GSS)4 linkers between each domain by PCR Splicing by Overlap Extension (SOE). This construct was subcloned into hSynapsin promoter bearing a copy of FUGW.^29 FUGW was a gift from David Baltimore (Addgene plasmid #14883; RRID: Addgene_14883).^48 This construct was designated as pF(UG) hSyn HaloTag®-TEV-4×GS-msGFP-mito.
HEK293T cell culture. HEK293T cells (ATCC) were passaged before 80% confluency by trypsinization (Corning; 25-053-CI) and trituration. The cell suspension was then plated on glass coverslips (Warner instruments; 64-0734, CS-18R17) coated with poly-D-lysine (Thermofisher; ICN10269491) and cultured in Dulbecco's Modified Eagle Medium (DMEM; ThermoFisher; 11965-118) supplemented with 10% v/v fetal bovine serum (FBS, Atlanta Biological) and penicillin/streptomycin (pen/strep; ThermoFisher; MT-30-001-CI) at 37° C. in a humidified 5% v/v CO2 environment following ATCC guidelines. These HEK293T cells were tested for mycoplasma contamination using the Universal Mycoplasma Detection Kit (ATCC; 30-1012K) and validated using Short Tandem Repeat profiling by ATCC (ATCC; 135-XV) within the previous year.
HEK293T labeling and fluorescence microscopy. […] For pulse-chase experiments, HEK293T cells were incubated with biotin-HaloTag® ligand (6; #G8281, Promega) at either 100 nM or 10 μM for 1 hour at 37° C. and chased with 100 nM of JANELIA FLUOR® (JF)549-HaloTag® ligand (2HTL). […] For imaging, the coverslips containing HEK293T cells were fixed with 4% paraformaldehyde in PBS at 37° C. for 10 min, washed with PBS (3×), and mounted on glass slides with ProLong Glass Antifade Mountant with NucBlue™ Stain (ThermoFisher; P36981). These cells were imaged using a Zeiss LSM 880 with Airyscan and a plan-apochromatic 63×/1.40 oil objective in Fast Airyscan mode. The same image acquisition settings were used for each trial and condition. Images were then processed with automatic Airyscan deconvolution settings.

Data set [2] is described as follows: Determination of lactone-zwitterion equilibrium constant (KL-Z). Type of data set: physicochemical. The note with it: 1:1 (v/v) dioxane:water. The procedure:
Determination of KL-Z. The lactone-zwitterion equilibrium constant (KL-Z) was calculated as described previously^13, 23, 32, 45 using equation 1: […]
where εdw is the extinction coefficient of the dyes in a 1:1 (v/v) dioxane:water solvent mixture containing 0.01% (v/v) triethylamine; this dioxane water mixture was chosen to give a large range of KL-Z values,^23 and the triethylamine additive ensures the rhodamines are in the net neutral form. The εmax is the maximal extinction coefficient, measured in 0.1% (v/v) trifluoroacetic acid in 2,2,2-trifluoroethanol (TFE).

The format of data set [3] is physicochemical. How it is done: Determination of logD7.4. The log of distribution coefficients at pH 7.4 was determined in octanol-phosphate-buffered saline (PBS) using the miniaturized shake flask setup described previously.^36, 47 Briefly, 150 mL each of octanol and PBS pH 7.4 were stirred vigorously for 12-16 h. The layers were allowed to stand for at least 24 h for phase separation. The separated layers were collected and served as PBS saturated with octanol (PBS*) and octanol saturated with PBS (octanol*). Stock solutions (1 mM or 5 mM) of ligands were prepared in DMSO and diluted in PBS* to obtain 1 μM or 10 μM (3-5 mL) of the standard (std). This standard was used to prepare appropriate dilutions using octanol*, in triplicate, in 2-mL glass vials. The leftover standard was used to determine the standard concentration (Cstd). The vials were vortexed for 1 min and shaken horizontally at 700 rpm for 2 h. The vials were then shaken upright at 150 rpm for 2 h to allow the phases to separate. The octanol* layer was pipetted out, and the PBS* layer was used for further analyses. The concentrations of ligands in the standard and PBS* (CPBS*) were determined via fluorescence measurements of 200 μL of PBS* or std in 96-well plates on the Cytation 5 Multimode Plate Reader (BioTek). For Si-rhodamine containing ligands, 2-20 μL of trifluoroacetic acid was added to each well of the 96-well plate prior to the fluorescence measurements. Reported values are averages of at least two measurements. The logD7.4 was obtained as described previously using equation 2:
[formula] • where Cstd is the standard concentration in PBS, CPBS* is the concentration in PBS after partitioning, r is the dilution factor of the standard solution, VPBS* is the volume of PBS used in the partitioning, and Voctanol* is the volume of octanol used in the partitioning.

For data set [4] the following is noted: 1:1 (v/v) dioxane-water; parent JF dyes; cited from earlier work.
Data set [5] deals with HaloTag®-histone H2B fusion protein. Type of data set: cell-based. The note with it: 200 nM, live U2OS cells expressing HaloTag®-H2B, 0-4 h. How it is done: Dye loading kinetics. Live U2OS.H2B.HaloTag® stable cells were labeled over a time course of 0-4 h with 200 nM of biotin-JF549-HaloTag® ligand (12), biotin-JF608-HaloTag® ligand (13), biotin-JF646-HaloTag® ligand (14), or biotin-JF635-HaloTag® ligand (15) at 37° C. Cells were then washed 3× with dye-free media, fixed with 4% paraformaldehyde in 0.1 M phosphate buffer, pH 7.4 for 15 min at 37° C. Confocal imaging was performed on a Leica SP8 with an HC PL APO CS2 20×/0.75 immersion objective using the tunable white light laser (WLL) to excite dyes at their λabs in constant power mode. Fluorescence was quantified as the average integrated density of background corrected nuclear signals from confocal image stack projections analyzed in FIJI; n=100 nuclear signals per compound.

A short description of data set [6]: 1-Photon spectroscopy and quantum yield of HaloTag® ligands. Type of data set: physicochemical. The note with it: free ligand, 10 mM HEPES pH 7.3. The procedure:
1-Photon spectroscopy of HaloTag® ligands and HaloTag® conjugates. […] All measurements were taken at ambient temperature (22 ±2° C.). Absorption spectra were recorded on a Cary Model 100 spectrometer (Agilent) using 1-cm path length 1.0-mL quartz microcuvettes from Starna Cells. Fluorescence spectra were recorded on a Cary Eclipse fluorometer (Varian) using 1-cm path length 3.5-mL quartz cuvettes (Starna Cells). As before,^13, 23, 32, 45 HaloTag® protein was used as a 100 μM solution in 1×TBS. HaloTag® ligands 12-15 (5 μM) were dissolved in 10 mM HEPES, pH 7.3, containing 0.1 mg/mL CHAPS. An aliquot of HaloTag® protein (1.5 equiv) was added, and the resulting mixture was incubated until a consistent absorbance signal was observed (60-120 min). To measure the fold-increase of absorbance upon HaloTag® binding, a “no HaloTag®” control experiment was performed where an equivalent volume of TBS blank was added in place of the protein. Reported values for extinction coefficient (ε) are averages of at least two measurements.
Quantum yield determination. All reported absolute fluorescence quantum yield values (Φf) were measured in the laboratory under identical conditions using a Quantaurus-QY spectrometer (model C11374, Hamamatsu). This instrument uses an integrating sphere to determine photons absorbed and emitted by a sample. Measurements were performed using dilute samples (absorbance<0.1), and self-absorption corrections were performed using the instrument software.^46 Reported values are averages of at least two measurements.

Where two headings read alike, the source gives them in different places.

T1 sequence (P0A3G2 other isoform, or with tags, fused parts or gaps with the stated changes): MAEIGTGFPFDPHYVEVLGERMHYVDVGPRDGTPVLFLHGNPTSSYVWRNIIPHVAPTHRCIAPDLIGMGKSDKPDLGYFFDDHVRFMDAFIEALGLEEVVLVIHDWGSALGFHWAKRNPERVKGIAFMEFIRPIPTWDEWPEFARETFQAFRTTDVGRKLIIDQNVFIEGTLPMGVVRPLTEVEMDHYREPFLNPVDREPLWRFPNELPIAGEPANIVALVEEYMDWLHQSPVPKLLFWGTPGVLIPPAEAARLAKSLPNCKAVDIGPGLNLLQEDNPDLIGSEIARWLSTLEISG

In the case of `O=C(NCCOCCOCCCCCCCl)c1ccc2c(c1)C1(OC2=O)c2ccc(N3CCC3)cc2Oc2cc(N3CCC3)ccc21` [2HTL, JF549-HaloTag® ligand, reference compound], the “labeling of mitochondria-localized HaloTag®-msGFP fusion” value in data set [1] is “labeled the mitochondria-localized HaloTag®-msGFP fusions”. The KL-Z in data set [2] is listed as 5.2. The logD7.4 in data set [3] (pH 7.4) stood at 0.82.
Consider `CC1(C)c2cc(N3CCC3)ccc2C2(OC(=O)c3ccc(C(=O)NCCOCCOCCCCCCCl)cc32)c2ccc(N3CCC3)cc21` [3HTL, reference compound], for which, in data set [2], the KL-Z worked out at 0.33. For the same compound, the logD7.4 in data set [3] (octanol-PBS pH 7.4) was 3.55.
In the case of `C[Si]1(C)c2cc(N3CCC3)ccc2C2(OC(=O)c3ccc(C(=O)NCCOCCOCCCCCCCl)cc32)c2ccc(N3CCC3)cc21` [4HTL, JF646-HaloTag® ligand, reference compound], in data set [1], the “labeling of mitochondria-localized HaloTag®-msGFP fusion” value is reported as “labeled the mitochondria in live cells”. Also, in data set [2], the KL-Z amounted to 0.010. The compound further had a logD7.4 in data set [3] (octanol-PBS pH 7.4) of 3.59.
As for `O=C1OC2(c3ccc(N4CCC4)cc3Oc3cc(N4CCC4)ccc32)c2ccccc21` [compound 2, Janelia Fluor 549], the KL-Z in data set [4] is on record as 3.5. In data set [3] (pH 7.4), the logD7.4 was 0.98.
For the compound `CC1(C)c2cc(N3CCC3)ccc2C2(OC(=O)c3ccccc32)c2ccc(N3CCC3)cc21` [compound 3, JF608], the KL-Z in data set [4] is 0.091. Besides, in data set [3] (octanol-PBS pH 7.4), the logD7.4 is listed as 3.78.
`C[Si]1(C)c2cc(N3CCC3)ccc2C2(OC(=O)c3ccccc32)c2ccc(N3CCC3)cc21` [compound 4, JF646]: the KL-Z in data set [4] is recorded as 0.0014. The logD7.4 in data set [3] (octanol-PBS pH 7.4) is on record as 3.98.
`C[Si]1(C)c2cc(N3CC(F)C3)ccc2C2(OC(=O)c3ccccc32)c2ccc(N3CC(F)C3)cc21` [compound 5, JF635]: in data set [4], the KL-Z is reported as 0.0001. The compound also came in with a logD7.4 in data set [3] (octanol-PBS pH 7.4) of 4.1.
Take `CC1(C)C2=CC(=[N+]3CC(C(=O)NCCOCCOCCNC(=O)CCCC[C@@H]4SC[C@@H]5NC(=O)N[C@@H]54)C3)C=CC2=C(c2cc(C(=O)NCCOCCOCCCCCCCl)ccc2C(=O)[O-])c2ccc(N3CCC3)cc21` (some centres unmarked) [compound 13, Biotin-JF608-HaloTag® ligand]: the KL-Z in data set [2] is 0.17. In data set [3] (pH 7.4), this compound came in with a logD7.4 of 2.63. Further, in data set [5], the “time to reach saturation of labeling” value is reported as 4 h. Also, in data set [6], the “extinction coefficient (ε)” value is listed as 92,300 M^−1cm^−1, the “fluorescence quantum yield (Φf)” value is 0.65, the λabs was 610 nm and the λem was 634 nm.
